Experimental data reported in US20250270246A1, “LINCOSAMIDES AND USES THEREOF” (President and Fellows of Harvard College, priority 2022, published 2025).
Converted amounts (≈) assume the structure as drawn. “And” between values parts separate entries of the source, which are not always exact repeats. Identical values can stand only once.

Key:
[1] = test system: P. aeruginosa ATCC 27853 (HAV#009); experiment: MIC by broth microdilution (CLSI), Chelex 100-treated broth; assay type: cell-based; details: Pseudomonas aeruginosa, ATCC27853; HAV#009, ATCC 27853; CaMHB pre-treated with Chelex 100 ion exchange resin, 24 h
Description: Minimum inhibitory concentrations (MICs) were determined by the broth microdilution method following the Clinical and Laboratory Standards Institute (CLSI) guidelines. Test organisms consisted of standard reference strains from the American Type Culture Collection (ATCC; Manassa, VA, USA) and clinical isolates obtained from JMI Laboratories Inc. (North Liberty, IA, USA), Micromyx repository (MMX; Kalamazoo, MI, USA), and Massachusetts Eye and Ear Hospital (Boston, USA). Before the start of the MIC experiment, standard and test compound stock solutions were prepared in dimethyl sulfoxide (DMSO, Aldrich D2650) at a stock concentration of 2,560 μg/mL. The compound concentration range typically employed for each experiment was 64-0.06 μg/mL (2.5% final DMSO concentration). Iboxamycin was used as a comparator in all experiments. All bacterial strains were sub-cultured on blood agar plates (tryptic soy agar with 5% sheep blood, Hardy Diagnostics) and incubated overnight at 35° C. Organisms were suspended in cation-adjusted Mueller-Hinton broth (CaMHB, BD 212322) and optical density was adjusted to 0.5 McFarland standard. Suspensions were further diluted to obtain a final inoculum of 5×10^5 CFU/mL for broth microdilution experiments. The minimum concentration of compound required to inhibit visible bacterial growth after 24 h of incubation was recorded as the MIC in μg/mL. MICs for P. aeruginosa were recorded in cation-adjusted Mueller-Hinton broth which had been pre-treated with Chelex 100 ion exchange resin according to procedures reported in Ito et al. Antimicrob Agents Chemother (2016) 60 (12), 7396-7401.

E. faecium JMI-990536 = experiment: MIC by broth microdilution (CLSI); assay type: cell-based; details: Enterococcus faecium, JMI990536, 24 h, JMI-990536; CaMHB, 24 h incubation; read-out: MIC E. faecium JMI-990536
How it was run: (§1)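 CLSI broth microdilution in cation-adjusted Mueller-Hinton broth, inoculum 5×10^5 CFU/mL, compounds typically 64-0.06 μg/mL with 2.5% final DMSO. MIC is the lowest concentration preventing visible growth after 24 h. For P. aeruginosa, broth was pre-treated with Chelex 100 resin.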

S. aureus MMX 3035 = experiment: MIC by broth microdilution (CLSI); assay type: cell-based; details: Staphylococcus aureus, MMX3035, 24 h, MMX 3035; CaMHB, 24 h incubation; read-out: MIC S. aureus MMX 3035
How it was run: as §1

[2] = test system: S. aureus ATCC 29213 (HAV#001); experiment: MIC by broth microdilution (CLSI); assay type: cell-based; details: Staphylococcus aureus, ATCC29213, 24 h, HAV#001, ATCC 29213; CaMHB, 24 h incubation; read-out: MIC S. aureus ATCC 29213
How it was run: as §1

S. pneumoniae c-ermB = experiment: MIC by broth microdilution (CLSI); assay type: cell-based; details: Streptococcus pneumoniae, 24 h, read-out: MIC S. pneumoniae c-ermB
How it was run: as §1

[3] = test system: E. faecalis ATCC 29212 (HAV#005); experiment: MIC by broth microdilution (CLSI); assay type: cell-based; details: Enterococcus faecalis, ATCC29212, 24 h, HAV#005, ATCC 29212; CaMHB, 24 h incubation; read-out: MIC E. faecalis ATCC 29212
How it was run: as §1

S. aureus Clinical (cfr) = experiment: MIC by broth microdilution (CLSI); assay type: cell-based; details: Staphylococcus aureus, 24 h, Clinical (cfr); CaMHB, 24 h incubation; read-out: MIC S. aureus Clinical (cfr)
How it was run: as §1

[4] = test system: E. coli ATCC 25922 (HAV#006); experiment: MIC by broth microdilution (CLSI); assay type: cell-based; details: Escherichia coli, ATCC25922, 24 h, HAV#006, ATCC 25922; CaMHB, 24 h incubation; read-out: MIC E. coli ATCC 25922
How it was run: as §1

[5] = test system: M. catarrhalis ATCC 25238; experiment: MIC by broth microdilution (CLSI); assay type: cell-based; details: Moraxella catarrhalis, ATCC25238, 24 h incubation
How it was run: as §1

H. influenzae ATCC 49247 = experiment: MIC by broth microdilution (CLSI); assay type: cell-based; details: Haemophilus influenzae, ATCC49247; ATCC 49247; 24 h incubation; read-out: MIC H. influenzae ATCC 49247
How it was run: as §1

K. pneumoniae JMI-991193 = experiment: MIC by broth microdilution (CLSI); assay type: cell-based; details: Klebsiella pneumoniae, JMI991193, 24 h, JMI-991193; CaMHB, 24 h incubation; read-out: MIC K. pneumoniae JMI-991193
How it was run: as §1

E. coli lptD mutant = experiment: MIC by broth microdilution (CLSI); assay type: cell-based; details: Escherichia coli, 24 h, read-out: MIC E. coli lptD mutant, lptD mutant / ΔlptD mutant; CaMHB, 24 h incubation
How it was run: as §1

[6] = from C=CCC[C@@H](NC(=O)[C@@H]1[C@@H]2OCC[C@@H](CC(C)C)C[C@H]2CN1C(=O)OC(C)(C)C)[C@H]1O[C@H](SCC=C)[C@H](O)[C@@H](O)[C@H]1O; rcm bond; 10-membered ring; Grubbs II (20 mol%)/benzoquinone; then HCl/MeOH; toluene; 0.2 mM; 0.33 h; 3 steps

SMILES	MIC [1] [µg/mL]	MIC (E. faecium JMI-990536) [µg/mL]	MIC (S. aureus MMX 3035) [µg/mL]	MIC [2] [µg/mL]	MIC (S. pneumoniae c-ermB) [µg/mL]	MIC [3] [µg/mL]	MIC (S. aureus Clinical (cfr)) [µg/mL]	MIC [4] [µg/mL]	MIC [5] [µg/mL]	MIC (H. influenzae ATCC 49247) [µg/mL]	MIC (K. pneumoniae JMI-991193) [µg/mL]	MIC (E. coli lptD mutant) [µg/mL]	ring closure, yield after HPLC [6]
CC(C)C[C@@H]1CCO[C@@H]2[C@H](CN[C@@H]2C(=O)N[C@H]2[C@H]3O[C@H](SCCCC/C=C/[C@H]2C)[C@H](O)[C@@H](O)[C@H]3O)C1 [FSA1610016, (4S,5aS,8S,8aR)-4-isobutyl-N-((1R,9R,10R,11R,12R,13S,14R,E)-12,13,14-trihydroxy-9-methyl-15-oxa-2-thiabicyclo[9.3.1]pentadec-7-en-10-yl) octahydro-2H-oxepino[2,3-c]pyrrole-8-carboxamide]	4 (≈ 7.59 µM)	4 (≈ 7.59 µM)	16 (≈ 30.4 µM)	0.125 (≈ 0.237 µM)	8 (≈ 15.2 µM)	0.25 (≈ 0.475 µM)	16 (≈ 30.4 µM)	16 (≈ 30.4 µM)	2 (≈ 3.8 µM)	≤ 0.06	32 (≈ 60.8 µM)	2 (≈ 3.8 µM)	–
CC(C)C[C@@H]1CCO[C@@H]2[C@H](CN[C@@H]2C(=O)N[C@H]2[C@H]3O[C@H](SCCCC/C=C/[C@@H]2C)[C@H](O)[C@@H](O)[C@H]3O)C1 [FSA1610014, (4S,5aS,8S,8aR)-4-isobutyl-N-((1R,9S,10R,11R,12R,13S,14R,E)-12,13,14-trihydroxy-9-methyl-15-oxa-2-thiabicyclo[9.3.1]pentadec-7-en-10-yl) octahydro-2H-oxepino[2,3-c]pyrrole-8-carboxamide]	32 (≈ 60.8 µM)	32 (≈ 60.8 µM)	32 (≈ 60.8 µM)	0.5 (≈ 0.949 µM)	16 (≈ 30.4 µM)	2 (≈ 3.8 µM)	32 (≈ 60.8 µM)	> 32	16 (≈ 30.4 µM)	0.25 (≈ 0.475 µM)	> 32	16 (≈ 30.4 µM)	–
CC(C)C[C@@H]1CCO[C@@H]2[C@@H](C1)CN(C(=O)OC(C)(C)C)[C@@H]2C(=O)N[C@@H]1CCC=CCS[C@H]2O[C@H]1[C@H](O)[C@H](O)[C@H]2O	–	–	–	–	–	–	–	–	–	–	–	–	1.3% and 1.7%
CC(C)C[C@@H]1CCO[C@@H]2[C@H](CN[C@@H]2C(=O)N[C@H]2[C@H]3O[C@H](SCCCC/C=C\[C@H]2C)[C@H](O)[C@@H](O)[C@H]3O)C1 [FSA1610015, (4S,5aS,8S,8aR)-4-isobutyl-N-((1R,9R,10R,11R,12R,13S,14R,Z)-12,13,14-trihydroxy-9-methyl-15-oxa-2-thiabicyclo[9.3.1]pentadec-7-en-10-yl) octahydro-2H-oxepino[2,3-c]pyrrole-8-carboxamide]	4 (≈ 7.59 µM)	1 (≈ 1.9 µM)	8 (≈ 15.2 µM)	0.125 (≈ 0.237 µM)	4 (≈ 7.59 µM)	0.25 (≈ 0.475 µM)	2 (≈ 3.8 µM)	8 (≈ 15.2 µM)	1 (≈ 1.9 µM)	≤ 0.06	32 (≈ 60.8 µM)	1 (≈ 1.9 µM)	–
